Assay results from patent US6747008B1, “Methods for treating and preventing alopecia” (University of Southern California, priority 2000, dated 2004).
“Also recorded” adds a separate entry of the source. Where no end group is shown, it is not given here. [ ]: non-standard residue; d: D form. Nle = CCCC[C@H](N)C(=O)O

B1: Filgratim: filgrastim (NEUPOGEN, Amgen, Inc.), comparator arm (protein, chains of the INN, looked up)
chain: MTPLGPASSLPQSFLLKCLEQVRKIQGDGAALQEKLCATYKLCHPEELVLLGHSLGIPWAPLSSCPSQALQLAGCLSQLHSGLFLYQGLLQALEGISPELGPTLDTLQLDVADFATTIWQQMEELGMAPALQPTQGAMPAFASAFQRRAGGVLVASHLQSFLEVSYRVLRHLAQP

Columns and labels:
Sprague Dawley rats = assay: Full-thickness excision model, rat: hair follicle regeneration; format: in vivo; details: day 21, topical in 10% CMC or subcutaneous, not observed in placebo
Description: (§1) Materials: The viscous vehicle was prepared from carboxymethylcellulose (CMC sodium salt, low viscosity, Sigma, St. Louis, Mo., Lot Number 34H0310) consisting of 10% low viscosity CMC in 0.05 M phosphate buffer, pH. 7.2, and sterilized by autoclaving followed by mixing with sterile peptide solutions. For subcutaneous administration, the peptides were dissolved in Lactated Ringers' Solution. […] 9GD (SEQ ID NO:41) was prepared by the Microchemical Core Laboratory at USC.
(§2) Surgical model: During the experimental period, C57BL/Ksj-db/db diabetic mice (Jackson Laboratories, Cold Spring Harbor, Me.) or Sprague Dawley rats were housed one per cage and maintained in a central animal care facility with a 12-hour light/dark cycle. Water and standard rodent laboratory chow were supplied ad libitum. All animals used for this study received humane care as defined by the National Research Council's criteria for humane care. The study protocols were approved by the University of Southern California's Institutional Animal Care and Use Committee before initiation of the studies.
Rat Model: Female Sprague-Dawley rats, 175 to 200 grams, were anesthetized with intramuscular ketamine/rompun. The backs of the rats were shaved with animal clippers, scrubbed with betadine, and washed with 70% alcohol before surgery. […]

[1] = test system: C57BL/Ksj-db/db diabetic mice; assay: Full-thickness excision model, mouse: hair follicle regeneration; format: in vivo; details: day 26, topical in 10% CMC or subcutaneous, not observed in placebo
Description: as §1, §2
Mouse Model: On day 0, C57BL/Ksj-db/db diabetic mice were anesthetized with intramuscular ketamine/xylazine and backs were swabbed with 70% isopropyl alcohol followed by betadine. Afterwards, a 1.3 cm diameter full thickness skin area was excised on the back of each mouse. […]

C57BL/6 mice = assay: Hair cycle synchronized animal model, cyclophosphamide induced alopecia; format: in vivo, mouse; details: for mice with observable hair regrowth: day 13, 30 μg/kg/day, control 1 of 5; for percentage of the area with hair regrowth: day 13, FIG. 1; for number of mature hair follicles present: day 19, histology, FIG. 2
Text: Adolescent, 6- to 8-week-old female, C57BL/6 mice (Simonson, Gilroy, Calif.) with normal, black fur were purchased and housed in community cages with 12-hour light cycles with mouse chow and water ad libitum. In contrast to the mosaic cycling of human hair follicles, these mice display a unique hair cycle synchronization, which makes them a most productive model for hair research. Only mice in the resting stage of the hair cycle (telogen) are used for these studies. In the truncal skin of mice all melanocytes reside in hair follicles, and pigment production (melanogenesis) occurs exclusively in anagen follicles. Thus, telogen C57BL/6 mice can be recognized reliably by the homogeneously pink color of their back skin.
Predictable and highly synchronized anagen development can only be achieved with anagen induction by depilation, as opposed to spontaneous anagen development. Thus, anagen was induced in the back skin of telogen mice by depilation so that, at the start of pharmacological manipulation, all hair follicles in the depilated back skin area of all mice are in exactly the same stage of anagen development. As soon as anagen VI had been reached, all mice were injected once with a high dose of cyclophosphamide. In all experiments, control and test mice were then compared for signs of hair loss, for skin color changes indicating the effect of test drugs on hair cycling and follicle melanogenesis, and for hair regrowth.
Under ketamine hydrochloride-induced general anesthesia, telogen mice that had gone through several postnatal hair cycles were induced to enter anagen by depilation of all telogen hair shafts. This was done by applying a melted wax/rosin mixture to the back skin and by peeling off this mixture after hardening. By this technique, all depilated telogen hair follicles immediately begin to transform into anagen follicles with their associated melanogenesis.
As soon as early anagen VI had been reached by these induced anagen follicles, ie, on day 9 postdepilation (p.d.), a single intraperitoneal injection of cyclophosphamide was given (150 mg/kg).
Chemotherapy induced alopecia was manipulated pharmacologically by administration of the active agents of the present invention, topically or by subcutaneous injection once daily until necropsy. Pigmentation, hair regrowth, and follicle histology are analyzed as indicated. Particular attention is paid to any retarding or enhancing effects on the degree of alopecia, to the hair regrowth pattern, and to the pigmentation of regrowing hair shafts.
After the cyclophosphamide injection on day 9 p.d, the back skin of test and control mice were examined daily for a period of up to 32 days for signs of alopecia and color conversion from black to pink, indicating the progression of anagen follicles in the hair cycle via catagen to telogen. This color change results from the abrupt termination of melanogenesis in follicular melanocytes very early during catagen development. Visible changes were recorded and photodocumented. Starting 1 week after CYP injection, the skin was examined daily for signs of hair regrowth, skin repigmentation, and the quality of hair shaft pigmentation.
In C57BL/6 mice of this age group, depilation induced anagen follicles spontaneously enter catagen between days 17 and 20 p.d., mostly around day 18. The development of catagen follicles was indicated macroscopically by a change in skin color from black to light gray and occurs in large waves, appearing first in the neck region. then on the flanks, until finally the tail region enters catagen. Within 1 to 2 days after catagen induction, the follicle enters telogen, as indicated by a skin color change from gray to pink. […]

[2] = Fragments tested for effectiveness (test not specified)
[3] = test system: patients with newly diagnosed breast cancer receiving doxorubicin and cyclophosphamide; assay: Phase I/II dose escalation study of AII(1-7) before and after chemotherapy; adverse event alopecia; format: in vivo, human; details: for incidents of alopecia associated with chemotherapy: breast cancer patients, doxorubicin 60 mg/m2 and cyclophosphamide 600 mg/m2, subcutaneous once daily
Description: Dose escalation within an individual patient was not permitted.
Following the rest period, a chemotherapy regimen containing doxorubicin 60 mg/m^2 and cyclophosphamide 600 mg/m^2 was initiated.
An adverse event (AE) was considered any unfavorable or unintended change in structure, function, signs, or symptoms temporally associated with the use of a medicinal product experienced by a person administered a pharmaceutical product, whether or not a causal relationship with the product has been established. During the conduct of this clinical trial, study personnel asked open-ended questions to obtain information about AEs at every visit. Signs and symptoms were graded by the Investigator using the WHO toxicity criteria. For alopecia, no notation was made if there was no hair loss. If there was hair loss, it was graded as mild (1) or pronounced (2). In this trial, the incidents of alopecia associated with chemotherapy were as follows: […]

Molecule	microscopic examination of wound site: new adnexal structures (new hair follicles) (Sprague Dawley rats)	microscopic examination of wound site: new adnexal structures (new hair follicles) [1]	mice with observable hair regrowth (C57BL/6 mice)	percentage of the area with hair regrowth (C57BL/6 mice)	number of mature hair follicles present (C57BL/6 mice)	effectiveness [2]	incidents of alopecia associated with chemotherapy [3]	effect on alopecia in chemotherapy patients relative to control ([3]; chemotherapy patients)
DR(nor)YIHP (DR[Nle]YIHP) [Analogue 9GD]	formation of new adnexal structures	formation of new adnexal structures	5 of 5	significantly increased	increased	–	–	–
Tyr-Ile-His-Pro-Phe (YIHPF) [AII(4-8)]	–	–	–	–	–	not to be effective; also recorded: ineffective	–	–
His-Pro-Phe (HPF) [AII(6-8)]	–	–	–	–	–	not to be effective	–	–
Asp-Arg-Val-Tyr-Ile-His-Pro [AII(1-7)]	formation of new adnexal structures	formation of new adnexal structures	4 of 5	significantly increased	increased	–	46%	significantly decreased alopecia
B1	–	–	–	–	–	–	40%	–
